Experimental data reported in article PMC13205134, “Design, synthesis, and biological properties exhibited by 1,2,3-triazole based Grp94-selective inhibitors” (European journal of medicinal chemistry, 2025).
Where “and” joins values, the source holds several entries; their conditions need not be identical. Identical values can stand only once. Entries after “also recorded” stand apart in the source; their conditions may differ.

Key:
Akt = experiment: Western blot of Akt in MDA-MB-231 cells; assay type: cell-based; details: 24 h
Procedure: (§1) MDA-MB-231 cells were grown in a water jacketed incubator at 37 °C with 5 % CO2. Cells were cultured in DMEM (Corning) media supplemented with 10 % heat-inactivated fetal bovine serum (FBS, Gibco, 10438-026) and 1 % Penicillin-Streptomycin (VWR, K952-100 mL). Cells were seeded in clear, flat bottom 6-well plates with each well containing 500,000 cells and grown to 80 % confluency. The medium was replaced with fresh DMEM that contains compounds of interest at the indicated concentrations or vehicle control, and cells were incubated for 24 h. Following treatment, MDA-MB-231 cells were then lysed in RIPA buffer supplemented with protease and phosphatase inhibitors. Protein concentration in lysates were determined by BCA assay (Thermo). Equal amounts of protein were separated by SDS-PAGE on 10 % polyacrylamide gels and […] onto nitrocellulose membranes. Transfer efficiency and total protein loading were confirmed by Ponceau staining. Membranes were blocked with 6 % nonfat dry milk and probed with primary antibodies against GAPDH (Cell Signaling, 14C10), Hsp70 (Cell Signaling, C92F3A), Akt, and Integrin α2 (Cell Signaling, D8V7H) each diluted 1:1000. Secondary antibodies were also used at 1:1000 (Southern Biotech), immunoblots were developed using ECL substrate (Amersham, 45-000-999) and visualized on a ChemiDoc Imaging System (BioRad).

Grp94 = experiment: Competitive binding fluorescence polarization (FP) assay, Grp94; details: for Polarization Read 1 / Polarization Read 2 / Polarization Read 3: replicate wells, protein not given
Procedure: The Fluorescence Polarization Assay (FP) was performed in 96-well flat-bottom plates (Santa Cruz Biotechnology) with a final volume of 100 μL per well. […] Each well contained 10 nM of Hsp90α or Grp94 (Enzo Biochem Inc.) and 6 nM of FITC-GDA (fluorescent tracer, stock in DMSO). Compounds were tested in triplicate at final concentrations of 100 μM, 10 μM, 1 μM, 0.1 μM and 0.01 μM with each final concentration containing 1 % DMSO. Each plate included control wells containing: (i) buffer only (background polarization), (ii) protein plus tracer (maximum polarization control), and (iii) tracer only (minimum polarization control). Plates were incubated on a rocker at 4 °C for 24 h.

integrin α2 = experiment: Western blot of integrin α2 in MDA-MB-231 cells; assay type: cell-based; details: 5 μM, 24 h
Procedure: as §1

wild-type myocilin = experiment: Cellular assay for wild-type myocilin in dox-inducible trabecular meshwork (TM-1) cells; assay type: cell-based, human; details: higher dose (30 μM), 24 h, Western blot
Procedure: (§2) Immortalized human trabecular meshwork (TM-1) cells stably transduced with WT or Y437H myocilin (50 MOI) were grown in low-glucose (1 g/L) Dulbecco’s modified Eagle medium with glutamine (DMEM, Gibco) supplemented with 10 % FBS (Hyclone), 1–2 % PS (Gibco) at 37 °C, and 200 μg/mL hygromycin (Corning), TM-1 cells were seeded in 6 well plates at equivalent cell counts/replicate. The following day, myocilin expression was induced by treating the cells with 2 μg/mL doxycycline (dox, Thermo-Scientific) in serum-free media. After 48 h, media was replaced with serum-free media containing 2 μg/mL dox to induce myocilin expression and 47 at the designated concentration for an additional 24 h.
Cells were lysed using lysis buffer (100 mM Tris-HCl pH 7.4, 3 mM EGTA, 5 mM MgCl2, 0.5 % Triton X 100) supplemented with 0.6 mM phenylmethylsulfonyl fluoride, and a 1:100 v/v protease inhibitor cocktail containing complete EDTA-free protease inhibitor (Roche) and 1 % (v/v) phosphatase inhibitor cocktails II and III (Sigma-Aldrich). Cells lysed by rocking in lysis buffer for ~2 h at 4 °C. […] Protein concentration of the detergent-soluble fractions was determined by BCA assay (Pierce).
The detergent-soluble samples were prepared in equal protein concentration in 5X Laemmli buffer containing 5–10 % (v/v) β-mercaptoethanol. […] Quantification of protein bands on Western blots was performed using ImageLab (Bio-Rad). […]

Hsp90α = Hsp90α (Homo sapiens, UniProt P07900); experiment: Competitive binding fluorescence polarization (FP) assay, Hsp90α; details: FITC-GDA tracer, mean of triplicates ± SD, read-out: Apparent Kd Hsp90α
Procedure: The Fluorescence Polarization Assay (FP) was performed in 96-well flat-bottom plates (Santa Cruz Biotechnology) with a final volume of 100 μL per well. The assay buffer consisted of 20 mM HEPES, 50 mM KCl, 10.5 mM MgCl2, 20 mM Na2MoO4, 0.01 % NP-40 detergent (NP-40), and pH 7.3 with fresh 2 mM dithiothreitol (DTT) and 0.1 mg/mL bovine γ-globulin (BGG). Each well contained 10 nM of Hsp90α or Grp94 (Enzo Biochem Inc.) and 6 nM of FITC-GDA (fluorescent tracer, stock in DMSO). Compounds were tested in triplicate at final concentrations of 100 μM, 10 μM, 1 μM, 0.1 μM and 0.01 μM with each final concentration containing 1 % DMSO. Each plate included control wells containing: (i) buffer only (background polarization), (ii) protein plus tracer (maximum polarization control), and (iii) tracer only (minimum polarization control). Plates were incubated on a rocker at 4 °C for 24 h. Fluorescence polarization (mP units) was measured at 37 °C using excitation and emission wavelengths of 485 and 528 nm, respectively. Apparent Kd values were determined via calculations from the polarization data obtained at which the tracer was displaced by 50 % by the compounds of interest.
[I50] = concentration of free inhibitor at 50% inhibition, [L50] = concentration of free fluorescence labeled ligand molecule at 50% inhibition, [P0] = concentration of free protein at 0% inhibition, K = dissociation constant of the protein−ligand complex.^4

Y437H myocilin = experiment: Cellular assay for mutant myocilin in dox-inducible trabecular meshwork (TM-1) cells; assay type: cell-based, human
Procedure: as §2
Cells were lysed using lysis buffer (100 mM Tris-HCl pH 7.4, 3 mM EGTA, 5 mM MgCl2, 0.5 % Triton X 100) supplemented with 0.6 mM phenylmethylsulfonyl fluoride, and a 1:100 v/v protease inhibitor cocktail containing complete EDTA-free protease inhibitor (Roche) and 1 % (v/v) phosphatase inhibitor cocktails II and III (Sigma-Aldrich). Cells lysed by rocking in lysis buffer for ~2 h at 4 °C. Detergent-soluble and detergent insoluble fractions were separated by centrifugation. Protein concentration of the detergent-soluble fractions was determined by BCA assay (Pierce).
The detergent-soluble samples were prepared in equal protein concentration in 5X Laemmli buffer containing 5–10 % (v/v) β-mercaptoethanol. The samples were heated at 95 °C for 5 min and loaded on 12 % Tris-glycine gels. The gels were then transferred to methanol-activated PVDF membranes using the Trans-blot Turbo transfer system (Bio-Rad). […] Quantification of protein bands on Western blots was performed using ImageLab (Bio-Rad). Measurements of band density were normalized to actin loading control within each experiment, and the statistical significance was determined with one-way ANOVA with GraphPad Prism.

Hsp70 = experiment: Western blot of Hsp70 in MDA-MB-231 cells; assay type: cell-based; details: 24 h
Procedure: as §1

## CCCc1ccccc1Cc1cnnn1CCc1c(Cl)c(O)cc(O)c1C(=O)OC [Compound 47, methyl 3-chloro-4,6-dihydroxy-2-(2-(5-(2-propylbenzyl)-1H-1,2,3-triazol-1-yl)ethyl)benzoate]
Akt
  effect on Akt (cytosolic Hsp90 client protein): did not affect Akt
Grp94; 0.01 µM
  Polarization Read 1: 298 and 289 and 285
  Polarization Read 2: 278 and 288 and 270
  Polarization Read 3: 275 and 284 and 279
Grp94; 0.1 µM
  Polarization Read 1: 247 and 250 and 234
  Polarization Read 2: 234 and 231 and 237
  Polarization Read 3: 220 (2×) and 210
Grp94; 1 µM
  Polarization Read 1: 189 and 179 and 182
  Polarization Read 2: 178 and 177 and 180
  Polarization Read 3: 185 (2×) and 186
Grp94; 10 µM
  Polarization Read 1: 170 and 191 and 174
  Polarization Read 2: 172 and 178 and 176
  Polarization Read 3: 169 and 185 and 177
Grp94; Grp94 affinity, relative to first generation BnIm
  improvement in affinity compared to BnIm: 15 fold
Grp94; Grp94 affinity, relative to second generation BnPh
  improvement in affinity compared to BnPh: 8 fold
Grp94; Grp94 affinity, relative to the 2-ethyl analog
  increase in affinity on extension of ethyl to propyl group: 10 fold
Grp94; selectivity over Hsp90α, n.s. = non-selective
  Fold selective for Grp94: 121 fold
Integrin α2
  levels of Integrin α2: induced the degradation of integrin α2; also recorded: reduced the levels of Integrin α2
wild-type myocilin
  wild-type myocilin expression: statistically significant decrease
Hsp90α
  Kd: 9.17 ± 0.86 µM
Y437H myocilin; 3 μM, 24 h, TM-1 cells, Western blot
  Y437H-mutant myocilin levels: statistically significant reduction
Y437H myocilin; 30 μM, 24 h, TM-1 cells Y437H myocilin, Western blot
  reduction of levels of intracellular myocilin: ≥ 50%
Y437H myocilin; human trabecular meshwork cells, concentration not given
  intracellular accumulation of mutant myocilin: reduced the intracellular accumulation of mutant myocilin
Hsp70
  Hsp70 expression: does not induce Hsp70 expression
